In assay [1] the test system is aP2/FABP4. In words: Immunoblot of aP2/FABP4 in 3T3-L1 adipocytes. The assay is classed as cell-based, mouse. The settings on record: immunoblot normalized with actin. An excerpt: (§1) The inventors have then evaluated the modulation of metabolic biomarkers those are primarily responsible for the adipogenesis processes, insulin resistance in type 2 diabetes, obesity, metabolic syndrome and other metabolic disorders such as Peroxisome proliferator-activated receptor gamma (PPARγ), CD36, adipocyte fatty acid binding protein 4 (FABP4 or aP2), Perilipin, and beta-3 Adrenergic Receptor (β3AR) during adipogenesis process in 3T3-L1 adipocytes by ethyl actate extract (LI/DD-II/054A/01) of Sphaeranthus indicus and 7-hydroxyfrullanolide (LI054A01) using an immunoblot assay. […] The protein extracts were evaluated by immunoblot assay, and the immuno-reactive bands were developed with West-pico chemiluminescent substrate and the blot images were captured in a Kodak Image Station, normalized with expression of actin.
(§2) Experimental protocol: Mouse pre-adipocyte 3T3-L1 cells are maintained in Dulbecco's Modified Eagles Medium (DMEM) supplemented with 2 mM glutamine, 4.5 g/L glucose and 10% fetal bovine serum. […] Protein content was measured in Bradford method by using Coomassie blue dye and cell lysates were stored in aliquots at −80° C. until further use. […]
(§3) Inhibition of protein expression of biomarker molecules adipocytes in presence or absence of Sphaeranthus indicus extract LI/DD-II/054A/01 and 7-hydroxyfrullanolide (LI054A01) was evaluated in immunoblot assay. […]
On the technique in general: A western blot detects proteins with antibodies after separation by electrophoresis.

Assay [2] deals with perilipin. Briefly: Immunoblot of perilipin in 3T3-L1 adipocytes. It counts as cell-based, mouse. The note with it: immunoblot normalized with actin.
Description: as §1, §2, §3

Assay [3] relates to CD36. Briefly: Immunoblot of CD36 in 3T3-L1 adipocytes. It counts as cell-based, mouse. The note with it: immunoblot normalized with actin.
Description: as §1, §2, §3

The subject of assay [4] is Matrix Metalloproteinase-1 (MMP-1). Briefly: Inhibition of MMP-1 production in PMA induced A2058 cells (ELISA). The assay is classed as cell-based. The note with it: PMA induced A2058 human melanoma cells, 24 h, supernatant ELISA. How it is done: A2058 cells were induced with 50 nM PMA in absence or presence of different concentrations of LI/DD-II/054A/01 for 24 h as indicated. Secreted MMP-1 concentration in the cell free culture supernatants was measured using MMP-1 ELISA Development Kit (R&D System, Minneapolis, Minn., USA). The MMP-1 concentration in culture supernatants was estimated quantitatively from the standard curve generated using known concentrations of MMP-1. Percentage of MMP-1 inhibition at each concentration of test compound was calculated from the formula: {(Conc. of MMP-1 in PMA induced−Conc. of MMP-1 in the test well)×100}[…]Conc. of MMP-1 in PMA induced wells.
MMP-1 was evaluated in PMA induced human melanoma cells, A2058. Briefly, the cells were cultured in Dulbecco's Modified Eagles Medium (DMEM) with 2 mM Glutamine, 100 U/mL penicillin, […] streptomycin and 10% fetal bovine serum (Hyclone, Logan, Utah). Five thousand cells per well were seeded into a 96-well cell culture plate (Corning, USA) one day before the experiment. The culture media was replaced with fresh DMEM containing 10% fetal bovine serum. […] The MMP-1 concentration in culture supernatant was estimated quantitatively by interpolating the optical densities into the standard curve generated from known concentrations of MMP-1. […]

The results in this text go back to patent publication US9241964B2, “Composition from Sphaeranthus indicus and Garcinia mangostana for the control of metabolic syndrome” (LAILA NUTRACEUTICALS, priority 2009, dated 2016).

Take `C=C1C(=O)O[C@H]2C3=C(C)CCC[C@]3(C)CC[C@@]12O` [LI054A01, 7-α-hydroxy-4,11(13)-eudesmadien-12,6-olide]: the aP2/FABP4 protein level entry in assay [1] is on record as “potently ameliorated”. Also, the perilipin protein level entry in assay [2] is reported as “potently ameliorated”. For the same molecule, in assay [3], the “adipocyte CD36 protein level” value was “potently ameliorated”. Also, the “IC50 of MMP-1” value in assay [4] was 1.2 µg/mL.
